Reference: the supplement of paper PMC4723716
Counter-ions that a name gives are not always drawn.

Tested on: Plasmodium falciparum NF54 gametocytes
Details: 384, incubation time: 72 h
Protocol: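 Known antimalarials and MMV control compounds in dose response against each stage (I–V) […] The fitted EC50 is reported as IC50 in µM; '>' marks the top dose reached without a curve.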

[1] = gametocyte stage: Stage I Dose Response IC50 (µM), assay protocol: SaLSSA
[2] = gametocyte stage: Stage II Dose Response IC50 (µM), assay protocol: SaLSSA
[3] = gametocyte stage: Stage III Dose Response IC50 (µM), assay protocol: SaLSSA
[4] = gametocyte stage: Stage IV Dose Response IC50 (µM), assay protocol: SaLSSA
[5] = gametocyte stage: Stage V Dose Response IC50 (µM), assay protocol: SaLSSA
[6] = gametocyte stage: Stage I Dose Response IC50 (µM), assay protocol: TSSA
[7] = gametocyte stage: Stage II Dose Response IC50 (µM), assay protocol: TSSA
[8] = gametocyte stage: Stage III Dose Response IC50 (µM), assay protocol: TSSA
[9] = gametocyte stage: Stage IV Dose Response IC50 (µM), assay protocol: TSSA
[10] = gametocyte stage: Stage V Dose Response IC50 (µM), assay protocol: TSSA

CC(=O)N[C@@H](C(=O)O)C(C)(C)S [N-acetyl-D-penicillamine]
IC50 of gametocyte viability [1]: > 12.5 µM
IC50 of gametocyte viability [2]: > 12.5 µM
IC50 of gametocyte viability [3]: > 12.5 µM
IC50 of gametocyte viability [4]: > 12.5 µM
IC50 of gametocyte viability [5]: > 12.5 µM

COc1cc(N[C@H](C)CCCN)c2nccc(C)c2c1Oc1ccc(Cl)c(Cl)c1 [NPC-1161B] [listing 1 of 2 here]
IC50 of gametocyte viability [6]: 5.21 µM
IC50 of gametocyte viability [7]: 6.63 µM
IC50 of gametocyte viability [8]: 4.57 µM
IC50 of gametocyte viability [9]: 6.24 µM
IC50 of gametocyte viability [10]: 5.22 µM

COc1cc(N[C@H](C)CCCN)c2nccc(C)c2c1Oc1ccc(Cl)c(Cl)c1 [NPC-1161B] [listing 2 of 2 here]
IC50 of gametocyte viability [1]: 2 µM
IC50 of gametocyte viability [2]: 2.02 µM
IC50 of gametocyte viability [3]: 3.51 µM
IC50 of gametocyte viability [4]: 3.6 µM
IC50 of gametocyte viability [5]: 2.86 µM

CC(C)(C)NCc1cc(Nc2ccnc3cc(Cl)ccc23)c2c(c1O)CCCC2 [Naphthoquine] [listing 1 of 2 here]
IC50 of gametocyte viability [6]: 0.0234 µM
IC50 of gametocyte viability [7]: 0.0128 µM
IC50 of gametocyte viability [8]: > 4.17 µM
IC50 of gametocyte viability [9]: > 4.17 µM
IC50 of gametocyte viability [10]: > 4.17 µM

CC(C)(C)NCc1cc(Nc2ccnc3cc(Cl)ccc23)c2c(c1O)CCCC2 [Naphthoquine] [listing 2 of 2 here]
IC50 of gametocyte viability [1]: 0.0251 µM
IC50 of gametocyte viability [2]: 0.0145 µM
IC50 of gametocyte viability [3]: 0.296 µM
IC50 of gametocyte viability [4]: > 4.17 µM
IC50 of gametocyte viability [5]: > 4.17 µM

C(CN1CCOCC1)Oc2ccc(cc2)[C@@H]3CC[C@@]4(CC3)OO[C@@]5(O4)[C@@H]6CC7C[C@@H](CC5C7)C6 [OZ 439 mesylate]
IC50 of gametocyte viability [1]: 0.0107 µM
IC50 of gametocyte viability [2]: 0.00536 µM
IC50 of gametocyte viability [3]: 0.00342 µM
IC50 of gametocyte viability [4]: 0.0019 µM
IC50 of gametocyte viability [5]: > 12.5 µM

c1cc([C@H]2CC[C@]3(CC2)OO[C@]2(O3)C3CC4CC(C3)CC2C4)ccc1OCCN1CCOCC1 [OZ 439 mesylate]
IC50 of gametocyte viability [6]: 0.0102 µM
IC50 of gametocyte viability [7]: 0.01 µM
IC50 of gametocyte viability [8]: 0.00852 µM
IC50 of gametocyte viability [9]: 0.00553 µM
IC50 of gametocyte viability [10]: > 12.5 µM

CCc1nc(N)nc(N)c1OCCCOc1ccccc1CCC(=O)O [P218.HCl]
IC50 of gametocyte viability [1]: > 12.5 µM
IC50 of gametocyte viability [2]: > 12.5 µM
IC50 of gametocyte viability [3]: > 12.5 µM
IC50 of gametocyte viability [4]: > 12.5 µM
IC50 of gametocyte viability [5]: > 12.5 µM

CCN(CC)CCCC(C)Nc1cc(OC)cc2cccnc12 (stereo not given) [Pamaquine (diethlyprimaquine)]
IC50 of gametocyte viability [1]: 1.68 µM
IC50 of gametocyte viability [6]: 1.67 µM
IC50 of gametocyte viability [2]: 1.4 µM
IC50 of gametocyte viability [7]: 2.87 µM
IC50 of gametocyte viability [3]: 2.41 µM
IC50 of gametocyte viability [8]: 5.15 µM
IC50 of gametocyte viability [4]: 2.82 µM
IC50 of gametocyte viability [9]: 5.28 µM
IC50 of gametocyte viability [5]: 2.53 µM
IC50 of gametocyte viability [10]: 9.38 µM

N=C(N)c1ccc(OCCCCCOc2ccc(C(=N)N)cc2)cc1 [Pentamidine] [listing 1 of 2 here]
IC50 of gametocyte viability [6]: 0.713 µM
IC50 of gametocyte viability [7]: 0.878 µM
IC50 of gametocyte viability [8]: 1.19 µM
IC50 of gametocyte viability [9]: 1 µM
IC50 of gametocyte viability [10]: 2.36 µM

N=C(N)c1ccc(OCCCCCOc2ccc(C(=N)N)cc2)cc1 [Pentamidine] [listing 2 of 2 here]
IC50 of gametocyte viability [1]: 0.397 µM
IC50 of gametocyte viability [2]: 0.591 µM
IC50 of gametocyte viability [3]: 0.697 µM
IC50 of gametocyte viability [4]: 0.813 µM
IC50 of gametocyte viability [5]: 2.14 µM

Clc1ccc2c(N3CCN(CCCN4CCN(c5ccnc6cc(Cl)ccc56)CC4)CC3)ccnc2c1 [Piperaquine phosphate] [listing 1 of 2 here]
IC50 of gametocyte viability [6]: 0.0223 µM
IC50 of gametocyte viability [7]: 0.0262 µM
IC50 of gametocyte viability [8]: > 4.17 µM
IC50 of gametocyte viability [9]: > 4.17 µM
IC50 of gametocyte viability [10]: > 4.17 µM

Clc1ccc2c(N3CCN(CCCN4CCN(c5ccnc6cc(Cl)ccc56)CC4)CC3)ccnc2c1 [Piperaquine phosphate] [listing 2 of 2 here]
IC50 of gametocyte viability [1]: 0.018 µM
IC50 of gametocyte viability [2]: 0.0145 µM
IC50 of gametocyte viability [3]: 0.031 µM
IC50 of gametocyte viability [4]: > 4.17 µM
IC50 of gametocyte viability [5]: > 4.17 µM

COc1cc(NC(C)CCCN)c2ncccc2c1 (stereo not given) [Primaquine]
IC50 of gametocyte viability [1]: 2.47 µM
IC50 of gametocyte viability [6]: 3.35 µM
IC50 of gametocyte viability [2]: 2.25 µM
IC50 of gametocyte viability [7]: 6.41 µM
IC50 of gametocyte viability [3]: 5.4 µM
IC50 of gametocyte viability [8]: 7.96 µM
IC50 of gametocyte viability [4]: 5.15 µM
IC50 of gametocyte viability [9]: 9.44 µM
IC50 of gametocyte viability [5]: 6.5 µM
IC50 of gametocyte viability [10]: > 11.3 µM

COc1ccc2nc3cc(Cl)ccc3c(Nc3cc(CN4CCCC4)c(O)c(CN4CCCC4)c3)c2n1 [Pyronaridine phosphate] [listing 1 of 2 here]
IC50 of gametocyte viability [6]: 0.0101 µM
IC50 of gametocyte viability [7]: 0.0125 µM
IC50 of gametocyte viability [8]: 0.315 µM
IC50 of gametocyte viability [9]: 3.82 µM
IC50 of gametocyte viability [10]: 3.16 µM

COc1ccc2nc3cc(Cl)ccc3c(Nc3cc(CN4CCCC4)c(O)c(CN4CCCC4)c3)c2n1 [Pyronaridine phosphate] [listing 2 of 2 here]
IC50 of gametocyte viability [1]: 0.0132 µM
IC50 of gametocyte viability [2]: 0.01 µM
IC50 of gametocyte viability [3]: 0.125 µM
IC50 of gametocyte viability [4]: 2.58 µM
IC50 of gametocyte viability [5]: 2.08 µM

C=C[C@H]1CN2CC[C@H]1C[C@@H]2[C@@H](O)c1ccnc2ccc(OC)cc12 [Quinidine] [listing 1 of 2 here]
IC50 of gametocyte viability [6]: 0.18 µM
IC50 of gametocyte viability [7]: 0.275 µM
IC50 of gametocyte viability [8]: 2.83 µM
IC50 of gametocyte viability [9]: > 12.5 µM
IC50 of gametocyte viability [10]: > 12.5 µM

C=C[C@H]1CN2CC[C@H]1C[C@@H]2[C@@H](O)c1ccnc2ccc(OC)cc12 [Quinidine] [listing 2 of 2 here]
IC50 of gametocyte viability [1]: 0.138 µM
IC50 of gametocyte viability [2]: 0.208 µM
IC50 of gametocyte viability [3]: > 9.17 µM
IC50 of gametocyte viability [4]: > 12.5 µM
IC50 of gametocyte viability [5]: > 11.8 µM

C=C[C@H]1CN2CC[C@H]1C[C@H]2[C@H](O)c1ccnc2ccc(OC)cc12 [Quinine sulfate dihydrate (coeff. 2)]
IC50 of gametocyte viability [6]: 0.918 µM
IC50 of gametocyte viability [7]: 0.767 µM
IC50 of gametocyte viability [8]: 1.58 µM
IC50 of gametocyte viability [9]: > 12.5 µM
IC50 of gametocyte viability [10]: > 12.5 µM

C=C[C@H]1CN2CC[C@@H]1C[C@H]2[C@H](O)c1ccnc2ccc(OC)cc12 [Quinine sulfate dihydrate (coeff. 2)]
IC50 of gametocyte viability [1]: 0.44 µM
IC50 of gametocyte viability [2]: 0.496 µM
IC50 of gametocyte viability [3]: > 8.77 µM
IC50 of gametocyte viability [4]: > 12.5 µM
IC50 of gametocyte viability [5]: > 8.86 µM

Nc1ccc(S(=O)(=O)Nc2ncccn2)cc1 [Sulfadiazine] [listing 1 of 2 here]
IC50 of gametocyte viability [6]: > 12.5 µM
IC50 of gametocyte viability [7]: > 12.5 µM
IC50 of gametocyte viability [8]: > 12.5 µM
IC50 of gametocyte viability [9]: > 12.5 µM
IC50 of gametocyte viability [10]: > 12.5 µM

Nc1ccc(S(=O)(=O)Nc2ncccn2)cc1 [Sulfadiazine] [listing 2 of 2 here]
IC50 of gametocyte viability [1]: > 12.5 µM
IC50 of gametocyte viability [2]: > 12.5 µM
IC50 of gametocyte viability [3]: > 12.5 µM
IC50 of gametocyte viability [4]: > 12.5 µM
IC50 of gametocyte viability [5]: > 12.5 µM

COc1ncnc(NS(=O)(=O)c2ccc(N)cc2)c1OC [Sulfadoxine]
IC50 of gametocyte viability [1]: > 12.5 µM
IC50 of gametocyte viability [2]: > 12.5 µM
IC50 of gametocyte viability [3]: > 12.5 µM
IC50 of gametocyte viability [4]: > 12.5 µM
IC50 of gametocyte viability [5]: > 12.5 µM

Cc1cc(NS(=O)(=O)c2ccc(N)cc2)no1 [Sulfamethoxazole] [listing 1 of 2 here]
IC50 of gametocyte viability [6]: > 12.5 µM
IC50 of gametocyte viability [7]: > 12.5 µM
IC50 of gametocyte viability [8]: > 12.5 µM
IC50 of gametocyte viability [9]: > 12.5 µM
IC50 of gametocyte viability [10]: > 12.5 µM

Cc1cc(NS(=O)(=O)c2ccc(N)cc2)no1 [Sulfamethoxazole] [listing 2 of 2 here]
IC50 of gametocyte viability [1]: > 12.5 µM
IC50 of gametocyte viability [2]: > 12.5 µM
IC50 of gametocyte viability [3]: > 12.5 µM
IC50 of gametocyte viability [4]: > 12.5 µM
IC50 of gametocyte viability [5]: > 12.5 µM
